# Assay results as given in patent US20230139543A1, “COMPOUNDS FOR USE IN A METHOD OF TREATING, PREVENTING AND/OR REDUCING THE SYMPTOMS OF PAIN” (The Beckley Foundation, priority 2020, published 2023).
# Entries after “also recorded” stand apart in the source; their conditions may differ.
# Assays:
# healthy participants [1] = assay: Vital signs (heart rate, blood pressure); type: in vivo, human; conditions: single oral dose 20 μg LSD vs placebo; data not shown
# Protocol: (§1) Twenty-four healthy participants (12 male, 12 female) participated in a randomized, double-blind, placebo-controlled, within-subject study in which they received single oral doses of 20 μg LSD (hydrate) and placebo on 4 separate test days. A minimum washout of 5 days proceeded in between to avoid carry-over effects. Treatment orders were randomly assigned to participants according to a balanced block design. LSD was formulated as a solution of 25 μg LSD base in 1 ml 96% ethanol according to GMP and administered orally. LSD doses (0.8 ml for 20 μg LSD) were supplemented with an ethanol solution up to a total volume 1 ml and administered with a syringe under the tongue. Placebo consisted of a 1 ml ethanol solution only. Treatments were administered at 10 AM.
# (§2) At 1.5 and 5 hours post treatment, participants conducted a Cold Pressor Test (further described below). The Brief Symptom Inventory and the Clinician Administered Dissociation State Scale (CADSS) were administered prior to treatment administration (baseline) and at the end of a test day, i.e. at 6 hours post dosing. Vital signs were recorded at baseline, every 30 minutes during the first three hours after dosing, and at every hour thereafter. Blood samples were collected at every hour. Participants resided in a secluded room that contained a bed, table and chairs. Standardized lunches were provided around 12 AM.
# Heart rate (bpm) and blood pressure (mmHg) were repeatedly assessed using an Omron M6 (HEM-7321-E, Omron Healthcare Europe By) device.
# (§3) Analyses were carried out by means of the SPSS 25 program series to investigate whether the effects of LSD doses differed from those of placebo. CPT parameters and baseline adjusted parameters of vital signs were analysed using a three factor ANOVA to assess main effects of Treatment, Time after treatment and Participant as well as the interaction Treatment×Time after treatment. Mean contrast (LSD dose versus placebo) tests were conducted for measuring the significance of individual dose effects, relative to placebo. […]
# [2] = Pharmacokinetics: LSD plasma levels by UHPLC-MS/MS; type: in vivo; conditions: both sexes, human, single oral dose 20 μg LSD, read-out: mean (SD) plasma LSD concentration
# Protocol: as §1
# At 1.5 and 5 hours post treatment, participants conducted a Cold Pressor Test (further described below). […] Vital signs were recorded at baseline, every 30 minutes during the first three hours after dosing, and at every hour thereafter. […]
# Blood samples were centrifuged, and plasma was frozen at −20° C. until analysis for pharmacokinetic assessments. LSD plasma levels were analysed by ultra-high-performance liquid chromatography tandem mass spectrometry (UHPLC-MS/MS) as previously described previously. PK Samples with a LSD concentration below […] were re-analysed by a different extraction procedure. […]
# healthy participants [3] = assay: Cold Pressor Test (CPT), placebo-controlled trial; type: in vivo, human; conditions: single oral dose 20 μg LSD vs placebo, 1.5 and 5 hours post treatment
# Protocol: as §1, §2
# The CPT was used to induce a painful sensation according to previously validated procedure (Smeets et al. Psychoneuroend. 2012, 37, 1998-2008). The CPT is the most commonly used test to induce conditioned pain modulation and to evaluate analgesic properties such as pain tolerance in healthy subjects (see, for instance, Okkerse et al. Br J Clin Pharmacol. 2017, 83(5), 976-990; Oaks et al. Discov Med. 2018, 26(144), 197-206). […]
# A water tank was filled with water that was cooled to 3° C. […] Dependent measures of the CPT included pain tolerance (sec) and subjective ratings of painfulness, unpleasantness and stress as assessed 10 cm visual analogue scales. Water temperature at onset and completion of the CPT were assessed as control measure.
# as §3, with “treatment.” for “treatment. Mean contrast (LSD dose versus placebo) tests were conducted for measuring the significance of individual dose effects, relative to placebo.”
structure (smiles),measurement,setting,value
"CCN(CC)C(=O)[C@@H]1C=C2c3cccc4[nH]cc(c34)C[C@H]2N(C)C1 [LSD, (D)-lysergic acid diethylamide]",diastolic blood pressure,healthy participants [1],slightly increased
same,heart rate,healthy participants [1],not affected
same,systolic blood pressure,healthy participants [1],slightly increased
same,concentration at 1.5 h,[2]; 1.5 hours after administration,0.482 ng/mL
same,concentration at 6 h,[2]; 6 hours post treatment,0.223 ng/mL
same,stress during the CPT (10 cm visual analogue scale),healthy participants [3],did not lead to a significant change; also recorded: not affected
same,pain tolerance during the CPT,healthy participants [3]; p=0.006,significant increase; also recorded: significantly increased
same,unpleasantness during the CPT (10 cm visual analogue scale),healthy participants [3]; p=0.008,significant decrease; also recorded: decreased
same,painfulness during the CPT (10 cm visual analogue scale),healthy participants [3]; p=0.012,significant decrease; also recorded: decreased
